Tests used:
[1] = Cmax in healthy human alveolar cell assessed as hydroxyitraconazole at 200 mg, po every 12 hrs for 5 days; assay type: ADME, organism-based, Lung, Pneumocyte; set-up: dose 200 mg, route oral; details: in vivo
[2] = test system: Plasma; experiment: Cmax in healthy human plasma assessed as hydroxyitraconazole at 200 mg, po every 12 hrs for 5 days; assay type: ADME, organism-based; set-up: dose 200 mg, route oral; details: in vivo
[3] = AUC (0 to 24 hrs) in healthy human lung epithelial lining fluid assessed as hydroxyitraconazole at 200 mg, po every 12 hrs for 5 days; assay type: ADME, organism-based; set-up: dose 200 mg, time < 24 hr, route oral; details: in vivo
[4] = Cmax in healthy human lung epithelial lining fluid at 200 mg, po every 12 hrs for 5 days; assay type: ADME, organism-based; set-up: dose 200 mg, route oral
[5] = test system: Plasma; experiment: AUC (0 to 24 hrs) in healthy human plasma assessed as hydroxyitraconazole at 200 mg, po every 12 hrs for 5 days; assay type: ADME, organism-based; set-up: time < 24 hr, dose 200 mg, route oral; details: in vivo
[6] = AUC (0 to 24 hrs) in healthy human alveolar cell assessed as hydroxyitraconazole at 200 mg, po every 12 hrs for 5 days; assay type: ADME, organism-based, Pneumocyte; set-up: time < 24 hr, dose 200 mg, route oral; details: in vivo

Cmax [1]: 6600 ng/mL
Cmax [2]: 1000 ng/mL
AUC [3]: 18900 ng·h/mL
Cmax [4]: 3300 ng/mL
AUC [5]: 60200 ng·h/mL
AUC [6]: 134000 ng·h/mL
SMILES: CC(O)C(C)n1ncn(-c2ccc(N3CCN(c4ccc(OCC5COC(Cn6cncn6)(c6ccc(Cl)cc6Cl)O5)cc4)CC3)cc2)c1=O (stereo unspecified) [HYDROXYITRACONAZOLE]

Reference: ChEMBL document CHEMBL1629615, “Intrapulmonary pharmacokinetics and pharmacodynamics of posaconazole at steady state in healthy subjects” (Antimicrob Agents Chemother, 2009)
